Test results published in patent publication US20230295201A1 (Gilead Sciences, Inc., priority 2020, published 2023).
Like-named read-outs stand apart in the source and are kept apart here.

Tests used:
[1] = system: RSV A2; assay: RSV NHBE EC50 (RSV A2 antiviral assay in normal human bronchial epithelial cells); assay type: cell-based; details: read-out: RSV NHBE EC50
Method: Normal human bronchial epithelial (NHBE) cells were purchased from Lonza (Walkersville, MD, Cat #CC-2540) and cultured in Bronchial Epithelial Growth Media (BEGM) (Lonza, Walkersville, MD, Cat #CC-3170). The cells were passaged 1-2 times per week to maintain <80% confluency. The NHBE cells were discarded after 6 passages in culture.
To conduct the RSV A2 antiviral assay, NHBE cells were plated in 96-well plates at a density of 7,500 cells per well in BEGM and allowed to attach overnight at 37° C. Following attachment, 100 μL of cell culture media was removed and 3-fold serially diluted compound was added using a Hewlett-Packard D300 Digital Dispenser. The final concentration of DMSO was normalized to 0.05%. Following compound addition, the NHBE cells were infected by the addition of 100 μL of RSV A2 at a titer of 1×10^4.5 tissue culture infectious doses/mL in BEGM and then incubated at 37° C. for 4 days. […] The mixtures were incubated for 10 minutes at 25° C., and the luminescence signal was quantified on an Envision luminescence plate reader.

[2] = system: RSV strain A2; assay: RSV HEp-2 EC50 (infectious cytopathic cell protection assay); assay type: cell-based; details: read-out: RSV HEp-2 EC50
Method: Antiviral activity against RSV is determined using an infectious cytopathic cell protection assay in HEp-2 cells. In this assay, compounds inhibiting viral infection and/or replication produce a cytoprotective effect against the virus-induced cell killing that can be quantified using a cell viability reagent. The techniques used here are novel adaptations of methods described in published literature (Chapman et al., Antimicrob Agents Chemother. 2007, 51(9):3346-53.)
HEp-2 cells are obtained from ATCC (Manassas, VI) and maintained in MEM media supplemented with 10% fetal bovine serum and penicillin/streptomycin. Cells are passaged twice a week and kept at subconfluent stage. Commercial stock of RSV strain A2 (Advanced Biotechnologies, Columbia, MD) is titered before compound testing to determine the appropriate dilution of the virus stock that generates desirable cytopathic effect in HEp-2 cells.
For antiviral tests, HEp-2 cells are grown in large cell culture flasks to near confluency but not fully so. The compounds to be tested are prediluted in DMSO in 384-well compound dilution plates, either in an 8 or 40 sample per plate standardized dose response format. 3-fold serial dilution increments of each test compound are prepared in the plates and test samples are transferred via acoustic transfer apparatus (Echo, Labcyte) at 100 nL per well into cell culture assay 384-well plates. Each compound dilution is transferred in single or quadruplicate samples into dry assay plates, which are stored until assay is ready to go. The positive and negative controls are laid out in opposite on ends of the plate in vertical blocks (1 column).
Subsequently, an infectious mixture is prepared using an appropriate dilution of virus stock previously determined by titration with cells at a density of 50,000/ml and 20 µL/well is added to test plates w/compounds via automation (uFlow, Biotek). Each plate includes negative and positive controls (16 replicates each) to create 0% and 100% virus inhibition standards, respectively. Following the infection with RSV, testing plates are incubated for 4 days in a 37° C. cell culture incubator. After the incubation, a cell viability reagent, Cell TiterGlo (Promega, Madison, WI) is added to the assay plates, which are incubated briefly, and a luminescent readout is measured (Envision, Perkin Elmer) in all the assay plates. The RSV-induced cytopathic effect, percentage inhibition, is determined from the levels of remaining cell viability. […] Various potent anti-RSV tool compounds are used as positive controls for antiviral activity.

[3] = human respiratory syncytial virus, NHBE, 96 h, NHBE cells, RSV A2, 4 days
[4] = human respiratory syncytial virus, HEp-2, 96 h, HEp-2 cells, RSV A2, 4 days
[5] = human respiratory syncytial virus, NHBE, 96 h
[6] = human respiratory syncytial virus, 96 h, HEp-2 cells, RSV A2, 4 days
[7] = human respiratory syncytial virus, 96 h, NHBE cells, RSV A2, 4 days

Row | SMILES | EC50 [2, 4] [nM] | EC50 ([2]; HEp-2 cells, RSV A2, 4 days) [nM] | EC50 ([1]; NHBE cells, RSV A2, 4 days) [nM] | further results
1 | COCCCOC(=O)[C@H](C)NP(=O)(OC[C@@]1(C#N)O[C@@H](c2ccc3c(N)ncnn23)[C@H](O)[C@@H]1O)Oc1ccccc1 (mixture of isomers) [Example 58, 3-Methoxypropyl ((((2R,3S,4R,5S)-5-(4-aminopyrrolo[2,1-f][1,2,4]triazin-7-yl)-2-cyano-3,4-dihydroxytetrahydrofuran-2-yl)methoxy)(phenoxy)phosphoryl)-L-alaninate] | – | – | – | EC50 [1, 3]: 917 nM
2 | C[C@H](NP(=O)(OC[C@@]1(C#N)O[C@@H](c2ccc3c(N)ncnn23)[C@H](O)[C@@H]1O)Oc1ccccc1)C(=O)O[C@H]1CCOC1 (mixture of isomers) [Example 64, (S)-Tetrahydrofuran-3-yl ((((2R,3S,4R,5S)-5-(4-aminopyrrolo[2,1-f][1,2,4]triazin-7-yl)-2-cyano-3,4-dihydroxytetrahydrofuran-2-yl)methoxy)(phenoxy)phosphoryl)-L-alaninate] | 350 | – | – | EC50 [1, 3]: 3500 nM
3 | CCC(CC)COC(=O)[C@H](CC(C)C)NP(=O)(OC[C@@]1(C#N)O[C@@H](c2ccc3c(N)ncnn23)[C@H](O)[C@@H]1O)Oc1ccccc1 (mixture of isomers) [Example 127, (2S)-2-ethylbutyl 2-(((((2R,3S,4R,5S)-5-(4-aminopyrrolo[2,1-f][1,2,4]triazin-7-yl)-2-cyano-3,4-dihydroxytetrahydrofuran-2-yl)methoxy)(phenoxy)phosphoryl)amino)-4-methylpentanoate] | 1730 | – | – | EC50 [1, 3]: 434 nM
4 | CC(C)(C)C(=O)OCCNP(=O)(OCC1(C#N)OC(c2ccc3c(N)ncnn23)C(O)C1O)Oc1ccccc1 (single isomer, unassigned) [Example 13] | – | 93 | 30 | –
5 | C[C@H](N[P@@](=O)(OC[C@@]1(C#N)O[C@@H](c2ccc3c(N)ncnn23)[C@H](O)[C@@H]1O)Oc1ccccc1)C(=O)O[C@H]1CC[C@H](C(C)(C)C)CC1 (single isomer, unassigned) [Example 23] | 207 | – | – | EC50 [1, 3]: 34 nM
6 | COC(=O)[C@H](C)NP(=O)(OC[C@@]1(C#N)O[C@@H](c2ccc3c(N)ncnn23)[C@H](O)[C@@H]1O)Oc1ccc(C[C@H](N)C(=O)OC)cc1 (single isomer, unassigned) [Example 63] | – | 4070 | > 5000 | –
7 | CCOCCOCCOC(=O)[C@H](C)NP(=O)(OC[C@@]1(C#N)O[C@@H](c2ccc3c(N)ncnn23)[C@H](O)[C@@H]1O)Oc1ccccc1 (single isomer, unassigned) [Example 75] | 1260 | – | – | –
8 | CCC(CC)COC(=O)[C@@H](C)NP(=O)(OC[C@@]1(C#N)O[C@@H](c2ccc3c(N)ncnn23)[C@H](O)[C@@H]1O)Oc1ccccc1 (single isomer, unassigned) [Example 83] | – | 5300 | 953 | –
9 | CC[C@H](NP(=O)(OC[C@@]1(C#N)O[C@@H](c2ccc3c(N)ncnn23)[C@H](O)[C@@H]1O)Oc1ccccc1)C(=O)OC1CCCC1 (single isomer, unassigned) [Example 110] | – | 281 | 339 | –
10 | CCC(CC)COC(=O)[C@H](CC(C)C)NP(=O)(OC[C@@]1(C#N)O[C@@H](c2ccc3c(N)ncnn23)[C@H](O)[C@@H]1O)Oc1ccccc1 (single isomer, unassigned) [Example 128] | – | 1870 | 164 | –
11 | C[C@H](NP(=O)(OC[C@@]1(C#N)O[C@@H](c2ccc3c(N)ncnn23)[C@H](O)[C@@H]1O)Oc1ccccc1)C(=O)O[C@H]1CC[C@@H](C(F)(F)F)CC1 (single isomer, unassigned) [Example 179] | – | 591 | > 4800 | –
12 | C[C@H](NP(=O)(OC[C@@]1(C#N)O[C@@H](c2ccc3c(N)ncnn23)[C@H](O)[C@@H]1O)Oc1ccccc1)C(=O)OCC(C)(C)C(F)(F)F (single isomer, unassigned) [Example 261] | 34 | – | – | –
13 | CCOC(=O)[C@H](C)NP(=O)(OC[C@@]1(C#N)O[C@@H](c2ccc3c(N)ncnn23)[C@H](O)[C@@H]1O)Oc1ccc(C(C)(C)C)cc1 (single isomer, unassigned) [Example 264] | – | 41 | – | –
14 | COC(=O)[C@H](C)NP(=S)(OC[C@@]1(C#N)O[C@@H](c2ccc3c(N)ncnn23)[C@H](O)[C@@H]1O)Oc1ccccc1 (stereo partly drawn) [Example 71, methyl ((((2R,3S,4R,5S)-5-(4-aminopyrrolo[2,1-f][1,2,4]triazin-7-yl)-2-cyano-3,4-dihydroxytetrahydrofuran-2-yl)methoxy)(phenoxy)phosphorothioyl)-L-alaninate] | – | – | – | EC50 ([2]; human respiratory syncytial virus, HEp-2, 96 h): 3140 nM; EC50 [1, 5]: > 5000 nM
15 | C[C@H](N[P@@](=O)(OC[C@@]1(C#N)O[C@@H](c2ccc3c(N)ncnn23)[C@H](O)[C@@H]1O)Oc1ccccc1)C(=O)OCC(C)(C)C [Example 93] | – | 2840 | 85 | –
16 | C[C@H](NP(=O)(OC[C@@]1(C#N)O[C@@H](c2ccc3c(N)ncnn23)[C@H](O)[C@@H]1O)Oc1ccccc1)C(=O)NC1CCCCC1 (stereo partly drawn) [Example 138, ((2R,3S,4R,5S)-5-(4-aminopyrrolo[2,1-f][1,2,4]triazin-7-yl)-2-cyano-3,4-dihydroxytetrahydrofuran-2-yl)methyl phenyl ((S)-1-(cyclohexylamino)-1-oxopropan-2-yl)phosphoramidate] | 38500 | – | – | EC50 [1, 3]: > 5000 nM
17 | CC1CCC(OC(=O)C(C)NP(=O)(OCC2(C#N)OC(c3ccc4c(N)ncnn34)C(O)C2O)Oc2ccccc2)CC1 (stereo not shown) [Example 144] | – | 614 | 65 | –
18 | CC[C@H](NP(=O)(OC[C@@]1(C#N)O[C@@H](c2ccc3c(N)ncnn23)[C@H](O)[C@@H]1O)Oc1ccccc1)C(=O)OCC(C)(C)C (stereo partly drawn) [Example 157, neopentyl (2S)-2-(((((2R,3S,4R,5S)-5-(4-aminopyrrolo[2,1-f][1,2,4]triazin-7-yl)-2-cyano-3,4-dihydroxytetrahydrofuran-2-yl)methoxy)(phenoxy)phosphoryl)amino)butanoate] | 972 | – | – | EC50 [1, 3]: 163 nM
19 | CCC(CC)COC(=O)[C@H](C)NP1(=O)OC[C@@]2(C#N)O[C@@H](c3ccc4c(N)ncnn34)[C@H](O)[C@@H]2O1 (stereo partly drawn) [Example 169, 2-ethylbutyl ((4aR,6S,7S,7aS)-6-(4-aminopyrrolo[2,1-f][1,2,4]triazin-7-yl)-4a-cyano-7-hydroxy-2-oxidotetrahydro-4H-furo[3,2-d][1,3,2]dioxaphosphinin-2-yl)-L-alaninate] | – | – | – | EC50 [2, 6]: 524 nM; EC50 [1, 7]: 965 nM
20 | C[C@H](NP(=O)(O)OC[C@@]1(C#N)O[C@@H](c2ccc3c(N)ncnn23)[C@H](O)[C@@H]1O)C(=O)OC1CCCCC1 [Example 202, cyclohexyl ((((2R,3S,4R,5S)-5-(4-aminopyrrolo[2,1-f][1,2,4]triazin-7-yl)-2-cyano-3,4-dihydroxytetrahydrofuran-2-yl)methoxy)(hydroxy)phosphoryl)-L-alaninate] | – | – | – | EC50 [2, 6]: 7050 nM; EC50 [1, 7]: > 2950 nM
21 | CCOC(=O)c1ccccc1OP1(=O)OC[C@@]2(C#N)O[C@@H](c3ccc4c(N)ncnn34)[C@H](O)[C@@H]2O1 (stereo partly drawn) [Example 224, ethyl 2-(((4aR,6S,7S,7aS)-6-(4-aminopyrrolo[2,1-f][1,2,4]triazin-7-yl)-4a-cyano-7-hydroxy-2-oxidotetrahydro-4H-furo[3,2-d][1,3,2]dioxaphosphinin-2-yl)oxy)benzoate] | – | – | – | EC50 [1, 5]: 2830 nM
